From US10857113B2, “Bezafibrate for the treatment of cancer” (Cipla Limited, priority 2016, dated 2020)

Tested on: A498 cells
Assay: In vivo animal efficacy study, subcutaneous tumor fragment xenograft
Design: species or system female athymic nude mice
Details: sunitinib 20 mg/kg, bezafibrate 150 mg/kg, p.o. q.d. × 21
Experimental: Healthy 10 female athymic nude mice were recruited for the donor cell inoculation. Animals were subcutaneously injected at flank region with 10 million A498 cells suspended in 200 μl of media and matrigel. Animals were monitored for solid tumor growth. […] Tumors were fragmented in to ˜30 mg size. […] [table] The tumor sizes were measured weekly twice from the date of tumor appearance till the end of the experiment. Tumor size was measured by digital vernier caliper (MITUTOYO) by measuring length (L=longest axis) and width (W=shortest axis). Tumor Volume (V) was calculated using formula: […] Mean tumor volume and % tumor growth inhibition (% TGI) were then calculated (SEM=standard error of mean).

## CCN(CC)CCNC(=O)c1c(C)[nH]c(/C=C2\C(=O)Nc3ccc(F)cc32)c1C [Sunitinib]
Day 1
  Tumor Growth Inhibition: 1.47%
  Tumor Volume, Mean: 145.40 mm^3
Day 6
  Tumor Growth Inhibition: 47.31%
  Tumor Volume, Mean: 174.90 mm^3
Day 9
  Tumor Growth Inhibition: 43.52%
  Tumor Volume, Mean: 261.95 mm^3
Day 13
  Tumor Growth Inhibition: 44.80%
  Tumor Volume, Mean: 340.62 mm^3
Day 16
  Tumor Growth Inhibition: 53.39%
  Tumor Volume, Mean: 448.05 mm^3
Day 20
  Tumor Growth Inhibition: 50.78%
  Tumor Volume, Mean: 630.25 mm^3
